How the values were obtained:
[1] = biological target: Cholinesterase (Homo sapiens, UniProt P06276); experiment: Inhibition of human recombinant BuChE using butyrylthiocholine iodide as substrate preincubated for 5 mins followed by substrate addition and measured every 2 mins by DTNB-reagent based Ellman's method
[2] = biological target: Beta-secretase 1 (Homo sapiens, UniProt P56817); experiment: Inhibition of human recombinant BACE-1 expressed in baculovirus using swedish mutant of APP based Rh-EVNLDAEFK-quencher as substrate incubated for 60 mins by FRET assay
Beta-secretase 1, sequence (P56817 whole entry): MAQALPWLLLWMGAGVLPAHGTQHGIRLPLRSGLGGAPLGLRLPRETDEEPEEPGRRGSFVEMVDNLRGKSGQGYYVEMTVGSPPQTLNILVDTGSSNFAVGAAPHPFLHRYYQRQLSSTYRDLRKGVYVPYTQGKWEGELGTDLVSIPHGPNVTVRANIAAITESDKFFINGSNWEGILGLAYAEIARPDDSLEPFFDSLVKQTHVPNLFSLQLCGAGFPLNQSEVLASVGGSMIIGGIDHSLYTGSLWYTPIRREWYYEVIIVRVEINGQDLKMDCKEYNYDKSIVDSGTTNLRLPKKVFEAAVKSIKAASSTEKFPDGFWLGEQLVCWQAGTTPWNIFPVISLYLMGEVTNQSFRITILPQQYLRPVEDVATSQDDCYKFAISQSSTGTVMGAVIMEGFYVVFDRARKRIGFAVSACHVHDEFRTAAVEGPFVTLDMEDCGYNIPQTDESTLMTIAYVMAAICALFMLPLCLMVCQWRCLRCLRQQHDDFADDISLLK

[3] = Tmax in CD-1 mouse brain at 30 mg/kg, ip administered as single dose and measured after 15 to 240 mins by LC-MS/MS analysis; type: ADME, organism-based; conditions: time 15-240 min
[4] = Cmax in CD-1 mouse plasma at 10 mg/kg, ip administered as single dose and measured after 15 to 240 mins by LC-MS/MS analysis; type: ADME, organism-based; design: dose 10 mg/kg, time 15-240 min, route ip
[5] = Cmax in CD-1 mouse brain at 10 mg/kg, ip administered as single dose and measured after 15 to 240 mins by LC-MS/MS analysis; type: ADME, organism-based; design: time 15-240 min, dose 10 mg/kg, route ip
[6] = Half life in CD-1 mouse plasma at 10 mg/kg, ip administered as single dose and measured after 15 to 240 mins by LC-MS/MS analysis; type: ADME, organism-based; conditions: time 15-240 min
[7] = Half life in CD-1 mouse plasma at 30 mg/kg, ip administered as single dose and measured after 15 to 240 mins by LC-MS/MS analysis; type: ADME, organism-based; conditions: time 15-240 min
[8] = biological target: T1, GABA transporter 4 (Mus musculus, UniProt P31650); experiment: Inhibition of mouse GAT4 expressed in HEK293 cells assessed as reduction in [3H]-GABA uptake incubated for 10 mins; type: cell-based
T1 sequence (P31650 whole entry): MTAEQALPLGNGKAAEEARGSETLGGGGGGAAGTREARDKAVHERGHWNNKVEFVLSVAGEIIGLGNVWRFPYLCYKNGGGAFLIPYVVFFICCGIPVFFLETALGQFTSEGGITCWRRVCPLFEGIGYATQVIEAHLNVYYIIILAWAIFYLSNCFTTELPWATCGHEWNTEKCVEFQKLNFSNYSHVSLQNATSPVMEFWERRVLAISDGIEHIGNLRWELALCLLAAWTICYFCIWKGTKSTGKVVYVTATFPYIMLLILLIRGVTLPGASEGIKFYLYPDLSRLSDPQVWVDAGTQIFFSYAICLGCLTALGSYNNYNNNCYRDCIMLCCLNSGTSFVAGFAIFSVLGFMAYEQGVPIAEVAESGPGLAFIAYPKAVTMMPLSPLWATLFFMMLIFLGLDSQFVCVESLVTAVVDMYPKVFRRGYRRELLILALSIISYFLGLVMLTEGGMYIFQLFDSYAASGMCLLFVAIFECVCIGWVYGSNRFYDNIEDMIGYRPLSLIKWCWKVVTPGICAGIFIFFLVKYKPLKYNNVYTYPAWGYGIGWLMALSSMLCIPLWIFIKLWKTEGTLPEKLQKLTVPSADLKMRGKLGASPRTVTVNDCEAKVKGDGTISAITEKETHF

[9] = biological target: Cytochrome P450 2D6 (Homo sapiens, UniProt P10635); experiment: Inhibition of CYP2D6 (unknown origin) at 10 uM; type: ADME
Cytochrome P450 2D6, sequence (P10635 whole entry): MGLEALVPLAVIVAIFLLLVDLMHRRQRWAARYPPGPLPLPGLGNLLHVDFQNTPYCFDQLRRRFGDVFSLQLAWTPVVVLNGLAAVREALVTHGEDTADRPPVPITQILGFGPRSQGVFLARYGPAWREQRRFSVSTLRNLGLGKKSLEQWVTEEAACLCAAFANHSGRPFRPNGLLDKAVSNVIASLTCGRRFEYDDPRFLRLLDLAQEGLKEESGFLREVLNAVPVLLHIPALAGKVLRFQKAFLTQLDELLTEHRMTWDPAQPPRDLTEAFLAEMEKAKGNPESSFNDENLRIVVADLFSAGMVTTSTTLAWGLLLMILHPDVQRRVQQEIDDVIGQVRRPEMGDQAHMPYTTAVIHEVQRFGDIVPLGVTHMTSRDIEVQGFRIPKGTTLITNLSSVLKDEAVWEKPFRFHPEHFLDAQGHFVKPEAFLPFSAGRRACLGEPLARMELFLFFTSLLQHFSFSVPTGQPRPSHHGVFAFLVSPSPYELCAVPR

[10] = MRT in CD-1 mouse brain at 10 mg/kg, ip administered as single dose and measured after 15 to 240 mins by LC-MS/MS analysis; type: ADME, organism-based; conditions: time 15-240 min
[11] = MRT in CD-1 mouse brain at 30 mg/kg, ip administered as single dose and measured after 15 to 240 mins by LC-MS/MS analysis; type: ADME, organism-based; conditions: time 15-240 min
[12] = AUC (0 to t) in CD-1 mouse plasma at 10 mg/kg, ip administered as single dose and measured after 15 to 240 mins by LC-MS/MS analysis; type: ADME, organism-based; design: time upper 240 min, dose 10 mg/kg, time lower 15 min, route ip
[13] = MRT in CD-1 mouse plasma at 10 mg/kg, ip administered as single dose and measured after 15 to 240 mins by LC-MS/MS analysis; type: ADME, organism-based; conditions: time 15-240 min
[14] = Drug metabolism in human liver microsomes assessed as N-dealkylation mediated metabolite formation; type: ADME, Microsome
[15] = Apparent volume of distribution in CD-1 mouse plasma at 10 mg/kg, ip administered as single dose and measured after 15 to 240 mins by LC-MS/MS analysis; type: ADME, organism-based; conditions: in vivo, time 15-240 min
[16] = Half life in CD-1 mouse brain at 10 mg/kg, ip administered as single dose and measured after 15 to 240 mins by LC-MS/MS analysis; type: ADME, organism-based; conditions: time 15-240 min
[17] = cells; conditions: Mus musculus, HEK293
Description: Inhibition of mouse GAT3 expressed in HEK293 cells assessed as reduction in [3H]-GABA uptake incubated for 10 mins

[18] = biological target: ATP-dependent translocase ABCB1 (Homo sapiens, UniProt P08183); experiment: Substrate activity at P-gp membranes (unknown origin) at 100 uM incubated for 40 mins by luminescent glo assay relative to control; type: ADME, cell membranes, Membrane
ATP-dependent translocase ABCB1, sequence (P08183 whole entry): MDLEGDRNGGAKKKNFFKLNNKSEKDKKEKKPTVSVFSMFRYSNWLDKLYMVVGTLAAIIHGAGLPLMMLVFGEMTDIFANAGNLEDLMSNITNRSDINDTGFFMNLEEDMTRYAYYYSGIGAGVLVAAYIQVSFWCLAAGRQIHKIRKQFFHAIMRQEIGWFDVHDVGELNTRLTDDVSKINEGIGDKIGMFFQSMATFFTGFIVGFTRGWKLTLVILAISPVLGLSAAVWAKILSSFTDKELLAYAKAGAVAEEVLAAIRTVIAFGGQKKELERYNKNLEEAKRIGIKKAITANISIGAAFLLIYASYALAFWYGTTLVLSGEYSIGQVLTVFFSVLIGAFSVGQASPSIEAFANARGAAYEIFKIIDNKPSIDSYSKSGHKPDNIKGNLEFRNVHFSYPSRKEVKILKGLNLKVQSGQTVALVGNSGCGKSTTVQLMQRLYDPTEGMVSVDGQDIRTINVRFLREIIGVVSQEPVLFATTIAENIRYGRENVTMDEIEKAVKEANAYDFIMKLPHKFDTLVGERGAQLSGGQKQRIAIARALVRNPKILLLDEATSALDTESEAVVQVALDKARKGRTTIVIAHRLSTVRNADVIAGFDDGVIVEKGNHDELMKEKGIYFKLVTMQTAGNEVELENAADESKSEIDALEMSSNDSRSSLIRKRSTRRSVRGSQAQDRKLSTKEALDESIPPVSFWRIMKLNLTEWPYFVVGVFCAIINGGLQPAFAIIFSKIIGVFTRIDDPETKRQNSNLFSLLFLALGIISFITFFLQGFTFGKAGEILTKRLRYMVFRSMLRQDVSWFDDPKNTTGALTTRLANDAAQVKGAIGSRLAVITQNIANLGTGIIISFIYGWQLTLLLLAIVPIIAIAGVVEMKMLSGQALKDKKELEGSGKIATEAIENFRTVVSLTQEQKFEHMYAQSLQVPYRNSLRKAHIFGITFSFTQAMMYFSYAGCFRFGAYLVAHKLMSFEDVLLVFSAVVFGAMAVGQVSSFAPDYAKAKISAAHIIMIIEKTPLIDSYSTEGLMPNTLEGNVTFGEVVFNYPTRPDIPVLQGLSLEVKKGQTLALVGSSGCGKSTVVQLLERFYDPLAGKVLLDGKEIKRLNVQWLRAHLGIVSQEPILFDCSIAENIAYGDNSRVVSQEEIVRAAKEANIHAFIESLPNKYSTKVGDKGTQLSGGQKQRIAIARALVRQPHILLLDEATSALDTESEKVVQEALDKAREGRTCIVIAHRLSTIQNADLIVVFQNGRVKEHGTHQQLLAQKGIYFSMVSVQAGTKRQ

[19] = AUC (0 to t) in CD-1 mouse brain at 30 mg/kg, ip administered as single dose and measured after 15 to 240 mins by LC-MS/MS analysis; type: ADME, organism-based; design: time upper 240 min, dose 30 mg/kg, time lower 15 min, route ip
[20] = Apparent volume of distribution in CD-1 mouse plasma at 30 mg/kg, ip administered as single dose and measured after 15 to 240 mins by LC-MS/MS analysis; type: ADME, organism-based; conditions: in vivo, time 15-240 min
[21] = Apparent clearance in CD-1 mouse plasma at 30 mg/kg, ip administered as single dose and measured after 15 to 240 mins by LC-MS/MS analysis; type: ADME, organism-based; conditions: time 15-240 min, read-out: CL(app)
[22] = Apparent clearance in CD-1 mouse plasma at 10 mg/kg, ip administered as single dose and measured after 15 to 240 mins by LC-MS/MS analysis; type: ADME, organism-based; conditions: time 15-240 min, read-out: CL(app)
[23] = Cmax in CD-1 mouse plasma at 30 mg/kg, ip administered as single dose and measured after 15 to 240 mins by LC-MS/MS analysis; type: ADME, organism-based; design: time upper 240 min, time lower 15 min, dose 30 mg/kg, route ip
[24] = Tmax in CD-1 mouse brain at 10 mg/kg, ip administered as single dose and measured after 15 to 240 mins by LC-MS/MS analysis; type: ADME, organism-based; conditions: time 15-240 min
[25] = Ratio of brain to plasma partition coefficient in CD-1 mouse at 10 mg/kg, ip administered as single dose and measured after 15 to 240 mins by LC-MS/MS analysis; type: ADME, organism-based; conditions: time 15-240 min, read-out: BPR
[26] = Metabolic stability in human liver microsomes assessed as parent compound remaining incubated for 120 mins in presence of NADPH regeneration system by UPLC/MS analysis; type: ADME, Microsome; conditions: read-out: Stability
[27] = MRT in CD-1 mouse plasma at 30 mg/kg, ip administered as single dose and measured after 15 to 240 mins by LC-MS/MS analysis; type: ADME, organism-based; conditions: time 15-240 min
[28] = AUC (0 to t) in CD-1 mouse brain at 10 mg/kg, ip administered as single dose and measured after 15 to 240 mins by LC-MS/MS analysis; type: ADME, organism-based; design: time 15-240 min, dose 10 mg/kg, route ip
[29] = Cmax in CD-1 mouse brain at 30 mg/kg, ip administered as single dose and measured after 15 to 240 mins by LC-MS/MS analysis; type: ADME, organism-based; design: time upper 240 min, time lower 15 min, dose 30 mg/kg, route ip
[30] = biological target: Sodium- and chloride-dependent GABA transporter 1 (Mus musculus, UniProt P31648); experiment: Inhibition of mouse GAT1 expressed in HEK293 cells assessed as reduction in [3H]-GABA uptake incubated for 10 mins; type: cell-based
[31] = biological target: Cytochrome P450 3A4 (Homo sapiens, UniProt P08684); experiment: Inhibition of CYP3A4 (unknown origin) at 10 uM; type: ADME
Cytochrome P450 3A4, sequence (P08684 whole entry): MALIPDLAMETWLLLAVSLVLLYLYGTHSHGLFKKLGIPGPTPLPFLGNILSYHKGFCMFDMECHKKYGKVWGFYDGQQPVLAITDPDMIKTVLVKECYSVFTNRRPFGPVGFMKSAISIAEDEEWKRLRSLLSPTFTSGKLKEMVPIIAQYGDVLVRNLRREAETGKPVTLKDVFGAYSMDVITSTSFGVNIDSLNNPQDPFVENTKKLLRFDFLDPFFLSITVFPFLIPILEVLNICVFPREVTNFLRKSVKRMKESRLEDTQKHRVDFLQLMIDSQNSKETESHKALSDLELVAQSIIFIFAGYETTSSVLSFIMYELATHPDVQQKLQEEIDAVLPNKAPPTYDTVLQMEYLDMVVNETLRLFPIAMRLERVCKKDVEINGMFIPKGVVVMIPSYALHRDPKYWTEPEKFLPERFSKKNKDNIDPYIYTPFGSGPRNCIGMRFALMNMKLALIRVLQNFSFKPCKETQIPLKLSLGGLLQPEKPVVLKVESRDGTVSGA

[32] = Tmax in CD-1 mouse plasma at 30 mg/kg, ip administered as single dose and measured after 15 to 240 mins by LC-MS/MS analysis; type: ADME, organism-based; conditions: time 15-240 min
[33] = cells; conditions: Mus musculus, HEK293; remark: listed apart in the source
Description: Inhibition of mouse GAT2 expressed in HEK293 cells assessed as reduction in [3H]-GABA uptake incubated for 10 mins

[34] = Half life in CD-1 mouse brain at 30 mg/kg, ip administered as single dose and measured after 15 to 240 mins by LC-MS/MS analysis; type: ADME, organism-based; conditions: time 15-240 min
[35] = Tmax in CD-1 mouse plasma at 10 mg/kg, ip administered as single dose and measured after 15 to 240 mins by LC-MS/MS analysis; type: ADME, organism-based; conditions: time 15-240 min
[36] = Ratio of brain to plasma partition coefficient in CD-1 mouse at 30 mg/kg, ip administered as single dose and measured after 15 to 240 mins by LC-MS/MS analysis; type: ADME, organism-based; conditions: time 15-240 min, read-out: BPR
[37] = AUC (0 to t) in CD-1 mouse plasma at 30 mg/kg, ip administered as single dose and measured after 15 to 240 mins by LC-MS/MS analysis; type: ADME, organism-based; design: dose 30 mg/kg, time 15-240 min, route ip

Cholinesterase, sequence (P06276 whole entry): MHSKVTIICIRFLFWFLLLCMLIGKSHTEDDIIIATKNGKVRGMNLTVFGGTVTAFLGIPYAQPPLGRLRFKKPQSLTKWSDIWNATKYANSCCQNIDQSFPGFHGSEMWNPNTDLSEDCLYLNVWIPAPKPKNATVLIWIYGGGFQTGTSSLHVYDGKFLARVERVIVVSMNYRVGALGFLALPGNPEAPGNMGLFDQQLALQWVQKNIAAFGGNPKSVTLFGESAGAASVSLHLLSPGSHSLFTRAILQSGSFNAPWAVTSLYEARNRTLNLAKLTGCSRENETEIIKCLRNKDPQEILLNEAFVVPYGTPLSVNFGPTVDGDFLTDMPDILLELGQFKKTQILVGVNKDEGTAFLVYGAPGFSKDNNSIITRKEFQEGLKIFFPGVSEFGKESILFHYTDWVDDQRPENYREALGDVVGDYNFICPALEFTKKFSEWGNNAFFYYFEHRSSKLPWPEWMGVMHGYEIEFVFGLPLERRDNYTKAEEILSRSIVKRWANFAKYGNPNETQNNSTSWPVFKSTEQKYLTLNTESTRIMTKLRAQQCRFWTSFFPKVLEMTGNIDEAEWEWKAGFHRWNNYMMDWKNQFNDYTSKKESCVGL

Structure (SMILES): CC(C)(C)c1cccc(CNCC(O)CNCCC(c2ccccc2)c2ccccc2)c1 (configuration not stated)
- IC50 [1]: 6 µM
- IC50 [2]: 41 µM

Structure (SMILES): O=C(CC(c1ccccc1)c1ccccc1)NCC(O)CNCC1CCCCC1 (configuration not stated)
- Tmax [3]: 0.25 h
- Cmax [4]: 192 ng/mL
- Cmax [5]: 27.4 ng/mL
- half-life [6]: 1.6 h
- half-life [7]: 0.912 h
- IC50 [8]: > 10 µM
- inhibition (INH) [9]: Active
- MRT [10]: 1.88 h
- MRT [11]: 1.8 h
- AUC(0-t) [12]: 247 ng·h/mL
- MRT [13]: 1.24 h
- Drug metabolism [14]: Metabolite_Detected
- Vz [15]: 80 L/kg
- half-life [16]: 5.84 h
- IC50 [17]: > 10 µM
- Activity [18]: <= 190%
- AUC(0-t) [19]: 122 ng·h/mL
- Vz [20]: 84.4 L/kg
- CL/F [21]: 1070 mL/min/kg
- CL/F [22]: 577 mL/min/kg
- Cmax [23]: 312 ng/mL
- Tmax [24]: 0.25 h
- Kp [25]: 0.34
- remaining at 2 h [26]: > 80%
- MRT [27]: 1.03 h
- AUC(0-t) [28]: 85.1 ng·h/mL
- Cmax [29]: 44.3 ng/mL
- IC50 [30]: > 10 µM
- inhibition (INH) [31]: Active
- Tmax [32]: 0.25 h
- IC50 [33]: > 10 µM
- half-life [34]: 4.24 h
- Tmax [35]: 0.25 h
- Kp [36]: 0.28
- AUC(0-t) [37]: 441 ng·h/mL

Source: ChEMBL document CHEMBL5346882 (Eur J Med Chem, 2023)
